From patent US11352607B2, “Genomic engineering of pluripotent cells” (Fate Therapeutics, Inc., priority 2015, dated 2022)

Tests used:
iCasp9-integrated iPSCs = test: AP1903-induced cell death of iCasp9-targeted hiPSCs (7AAD staining, flow cytometry); format: cell-based, human; conditions: 24 hrs
Experimental: The sorted GFP (neg), GFP (low) and GFP (hi) populations were expanded, and then were subjected to AP1903 treatment (10 nM or 100 nM), or DMSO as control, for 24 hrs. The treated cells were harvested and stained with 7AAD and analyzed by flow cytometry. The 7AAD negative cells (presumably live cells) percentage were plotted for each treatment.
Expanded puro-resistant iPSCs were then subjected to AP1903 (or DMSO control) treatment for 24 hrs. The treated cells were harvested and stained with 7AAD and analyzed by flow cytometry. The 7AAD negative cells, i.e., live cells, percentage were plotted for each treatment.

293T cells = test: AP1903-induced cell death of iCasp9-targeted 293T cells (7AAD); format: cell-based; conditions: 10 nM or 120 nM, 24 hrs; 293T cells with CMV-driven iCasp9 at AAVS1
From the text: The chemical inducer of dimerization (CID; AP1903) was purchased from Medchemexpress (Monmouth Junction, N.J.). Twenty-four hours after CID exposure, the cells were harvested and stained with 7-amino actinomycin D (7-AAD) according to the manufacturer's instruction (BD Biosciences). The percentage of 7-AAD positive cells were quantified as dead cells by flow cytometry (Guava, EMD Millipore, Billerica, Mass.) and analyzed with flowjo software.
A donor construct encompassing CMV-driven iCasp9 (AAVS1-G1.0) was designed to target the AAVS1 locus (FIG. 1A) and to integrate the Casp9 suicide gene to 293T cells. The donor construct also comprise GFP and puromycin genes, the expression of which are driven by AAVS1 endogenous promoter once the targeted insertion takes place (FIG. 1A). 293T cells were transfected with ZFNs specific to AAVS1 locus and the donor construct AAVS1-G1.0. Three days after transfection, the puromycin selection was started and continued for 12 days. The puro-selected population was analyzed by flow cytometry for GFP expression, and a range of GFP expression levels were observed. It was observed that about 82% of the puro-selected cell population expressed GFP (FIG. 1B). […] The treated cells were then harvested and stained with 7AAD, which selectively stains membrane-compromised dying cells, and analyzed by flow cytometry. […]

[1] = test system: CAG-C38 iCasp9 iPSC clone with sr39TK at H11 locus; test: Dual suicide gene safe guard system: AP1903 and GCV treatment in vitro; format: cell-based, human; conditions: 10 nM AP1903 two days; 25 μg/mL GCV nine days
From the text: In addition to CAG-iCasp9 integrated into AAVS1 locus, CAG-sr39TK was integrated into H11 safe harbor in CAG-C38 clonal iPSC using targeted insertion method described herein.

| Compound | cell death mediated by AP1903 (iCasp9-integrated iPSCs; 10 nM or 100 nM, hiPSCs with CMV-driven iCasp9, GFP (neg), GFP (low), GFP (hi) populations) | cell death mediated by AP1903 (iCasp9-integrated iPSCs; hiPSCs with iCasp9 under endogenous AAVS1 promoter) | cell death post AP1903 treatment (293T cells) | inducible killing of CAG-C38 iCasp9 clone with sr39TK at H11 [1] |
| --- | --- | --- | --- | --- |
| CC[C@H](C(=O)N1CCCC[C@H]1C(=O)O[C@H](CCc1ccc(OC)c(OC)c1)c1cccc(OCC(=O)NCCNC(=O)COc2cccc([C@@H](CCc3ccc(OC)c(OC)c3)OC(=O)[C@@H]3CCCCN3C(=O)[C@@H](CC)c3cc(OC)c(OC)c(OC)c3)c2)c1)c1cc(OC)c(OC)c(OC)c1 [AP1903] | not detected | not detected | Significant cell death was detected | inducible killing of most cells but rare cells remained |
| Nc1nc(O)c2ncn(COC(CO)CO)c2n1 [GCV, Ganciclovir] |  |  |  | expanded GCV-refractory cells |
